The text below walks through data of patent publication US20250275993A1, “GLYCOSYLATION INHIBITORS AS THERAPEUTICS FOR STROKE” (The Regents of the University of California, priority 2022, published 2025).

In one assay the test system is JNK/c-jun. The assay is described as follows: Western blot of JNK pathway activation in BCECs. The class given is cell-based, bovine. How it is done: (§1) Cells were allowed to reach-80% confluency in 12-well plates. […] At various time points, plates were taken out of the incubator and kept on ice. Cell monolayers were first washed once with ice-cold PBS before lysis with 250 μI of Pierce RIPA buffer (ThermoFisher Scientific, Rockford, IL) or use 50 mM Tris-HCl (pH 7.6), 150 mM NaCl, 10% Glycerol, 1% NP-40 containing protease/Phosphatase inhibitor cocktail (100×) (Cell signaling, #5872). Lysates were collected and mixed with 4× Bolt LDS Sample Buffer (Novex, Carlsbad, CA) in the presence of Halt protease inhibitors and phosphatase inhibitor cocktail (ThermoFisher scientific, #NP0007). The samples were subjected to SDS-PAGE (Bolt 4-12% Bis-Tris Plus, Invitrogen) using Bolt MES SDS running buffer or NuPAGE 3-8% Tris-Acetate gel using Tris-Acetate SDS running buffer (Novex). HUVECs (passage 6-8) were plated in EBM-2 basal medium (Lonza) with 0.2% FBS. Following overnight culture, cells were serum-starved in EBM-2 medium for 4 hrs prior to treatment with 50 ng/ml of VEGF165 or vehicle controls for various lengths. Equal amounts of protein lysates were analyzed by SDS-PAGE and blotted with the indicated antibodies. Proteins were transferred using Tris-Glycine buffer with 20% Methanol (Proteonomics grade) (Apex BioResearch Products). Membranes were first incubated with 5% milk in TBST, pH 7.6 (TEKnova, Hollister, CA), followed by blotting with primary and secondary antibodies. ECL anti-rabbit IgG, horseradish peroxidase linked whole antibody from donkey or sheep anti-mouse were obtained from GE Healthcare (UK limited). SuperSignal West Dura Extended Duration substrate was from ThermoFisher Scientific. In some cases, the same PVDF membranes were stripped by 8-min incubation in the Restore Plus Western Blot Stripping Buffer (ThermoFisher Scientific) to show total specific protein expression, followed by second stripping for (3-actin expression.
A general note: Immunoblotting shows a protein as a band on a membrane.

Another assay concerns VEGFR2. The assay is described as follows: VEGFR2 western blot in BCECs (molecular mass, phosphorylation, PNGase F). The class given is cell-based, bovine. How it is done:
Glycerol-free PNGase F was obtained from New England Biolabs (Ipswich, MA). Briefly, BCECs were lysed with NP-40 containing proteinase inhibitors (Thermo Scientific, Waltham, MA). Lysates were cleared at 4° C. at 5000 g for 25 mins. Total protein content was measured using Pierce BCA protein assay kit (Thermo Scientific). 20 mg of protein was mixed with 10× denaturing buffer and H2O to a total volume of […]. Glycoproteins were denatured at 100° C. for 10 mins, followed by adding Glycobuffer and PNGase F. The reaction was carried out at 37° C. for 2 hr.
as §1, with “Cell monolayers were first washed once with ice-cold PBS before lysis with 250 μI of Pierce RIPA buffer (ThermoFisher Scientific, Rockford, IL) or use 50 mM Tris-HCl (pH 7.6), 150 mM NaCl, 10% Glycerol, 1% NP-40 containing protease/Phosphatase inhibitor cocktail (100×) (Cell signaling, #5872).” left out, “The samples were subjected to SDS-PAGE (Bolt 4-12% Bis-Tris Plus, Invitrogen) using Bolt MES SDS running buffer or NuPAGE 3-8% Tris-Acetate gel using Tris-Acetate SDS running buffer (Novex).” left out

A further assay deals with retinal vasculature. As to the kind of experiment: Retinal neovascularization after intravitreal injection. It counts as in vivo, mouse. The settings on record: 500 ng ManN or Kif, 200 ng bFGF intravitreally; after seven days. How it is done: The effect of ManN and Kif on inducing retinal neovascularization was assessed. The findings in cultured eye-derived EC were extended to a suitable in vivo model system. The mouse retina has been used extensively over the past decades to study both physiological and pathological angiogenesis. To obtain a detailed description of the retinal vasculature, images from retinal flat mounts were processed for vascular area fraction (ratio of area covered by blood vessels to total retinal area). Using this model, the effects of ManN in retinal neovascularization were assessed. Kif was also tested in this model because it is a water-soluble inhibitor and its mechanism of glycosylation inhibition is well established. In addition, it shares with ManN the ability to activate ERK, AKT and stress pathways in BCEC (FIG. 7E).
Assessment of retinal angiogenesis following intravitreal administration was done. Briefly, 6-8 weeks old C57BL/6 male mice were randomly allocated to different groups and anesthetized with ketamine/Xylazine cocktail. The indicated amounts of ManN, Kif or bFGF (R&D systems, AF-233-NA) in 1 μl of PBS and PBS vehicle control were injected intravitreally with a 33-gauge Hamilton syringe. Seven days after injection, animals were euthanized. Eyes were then enucleated and fixed in 4% paraformaldehyde (PFA) for 30 mins. Retinas were separated and stained with anti-CD31 immunofluorescence (IF) to evidence the vasculature. Evaluations were performed by an investigator blinded to the treatment. For CD31 IF, rat anti-mouse antibody (BD Biosciences, CAT #550274) was diluted 1:100 and incubated overnight at 4° C. After 4-hour incubation with the Alexa Fluor-488-conjugated anti-rat antibody (Life Technologies, A11006), whole mounts were imaged via the 488 nm channel using AIR Confocal STORM super-resolution system (Nikon). Quantification of vascular density in choroids and retina was carried out by Image J. Each experiment was repeated three times with similar results, and each treatment group consists of 5 individual samples.

For a further assay, the system named is Bip, CHOP, ATF-6. The assay is described as follows: Western blot of UPR responsive proteins in BCECs. The class given is cell-based, bovine.

Molecules are shown by their SMILES. Some results are limits rather than exact numbers.

With `N[C@H](C=O)[C@@H](O)[C@H](O)[C@H](O)CO` [ManN, 2-Amino-2-deoxy-D-mannose], the “activation of JNK and downstream c-Jun” value with JNK/c-jun (BCECs switched to media without growth factors, 4 μM-4 mM, four hours) is given as “significantly activated by ManN in a dose-dependent manner”. In the assay on VEGFR2 (BCECs and BRECs), the “concentration from which VEGFR2 apparent molecular mass shifts” value was no less than 40 µM. Besides, the “duration of ManN effects on protein mass in the absence of exogenous ManN” value in the assay with VEGFR2 (BCECs, FIG. 4E) is on record as “at least 8 hours”. In the assay with VEGFR2 (ManN in BCEC), the “protein mass of av integrin, Neuropilin-1, VE-cadherin and bFGFR1” value was “affected as well”. In the assay with VEGFR2 (ManN pre-treated cells), the “VEGFR2 phosphorylation in response to VEGF” value is listed as “decreased”. Besides, the “reversibility of VEGFR2 molecular mass change after ManN removal” value in the assay on VEGFR2 (after 24 hours) is “completely reverse”. The “ligand-independent VEGFR2 activation” value with VEGFR2 (after ManN addition in BCECs) is “No ligand-independent VEGFR2 activation”. Also, the “dependence of ManN effects on VEGFR2 signaling” value in the assay on VEGFR2 (experiments with axitinib) was “not dependent on VEGFR2 signaling”. In the assay with VEGFR2 (hexosamines and derivatives at 40 μM, 24 hours), the “specificity of VEGFR2 molecular mass shift” value is “unique to ManN among hexosamines and their derivatives”. The “extent of loss of VEGFR2 glycosylation (PNGase F treatment)” value in the assay with VEGFR2 (μM concentrations of ManN) is “not all the glycosylation on VEGFR2 was abolished”. In addition, in the assay with retinal vasculature, the “increase in density of retinal vessels vs PBS group” value is recorded as roughly 30%. In addition, in the assay on Bip, CHOP, ATF-6 (FIG. 5B), the “synergy between ManN and VEGF in promoting Bip or CHOP expression” value was “No synergy”. Also, the “time of CHOP induction” value in the assay with Bip, CHOP, ATF-6 (ManN, dose-dependent) is “about 6 hours”. The Bip expression result in the assay with Bip, CHOP, ATF-6 (growing cells deprived of growth factor, evident at 24 and 48 hours) is “significantly turn on Bip expression in a concentration-dependent manner”.
For the compound `O=C1N[C@@H]2[C@@H](O)[C@@H](O)[C@H](O)[C@@H](CO)N2C1=O` [Kif, Kifunensine, reference compound], the “activation of the JNK pathway by glycosylation inhibitors” value with JNK/c-jun (40 μM, BCECs, FIG. 7E) is “able to activate the JNK pathway”. In addition, in the assay on VEGFR2 (24 hours), the “VEGFR2 molecular mass on SDS-PAGE after glycosylation inhibitors” value is “reduction in VEGFR2 molecular mass”. In addition, the “increase in density of retinal vessels vs PBS group” value with retinal vasculature is roughly 20%. For the same compound, the “Bip expression by glycosylation inhibitors” value in the assay with Bip, CHOP, ATF-6 (media without growth factors for 24 hours) is given as “dose-dependent induction of Bip expression”.
